US5786367A, “Cyclic amide derivatives” (Otsuka Pharmaceutical Co., Ltd., priority 1994, dated 1998)
Where two headings read alike, the source gives them in different places.

Experiments:
[1] = tested on: skin homogenate of guinea pig; assay: Activity for inhibiting the formation of lipid peroxides (ultraviolet-B irradiated skin homogenate, TBA method); format: biochemical, albino guinea pig (Hartley strain, female); conditions: test compound 10^-4 M; UV 9.5 mW/cm^2, 60 minutes
Method: The activity for inhibiting the formation of lipid peroxides which are increasingly formed by exposed to the ultraviolet-B radiation to the skin homogenate of guinea pig was determined by a procedure of thiobarbituric acid method (TBA method).
The activity for inhibiting the formation of lipid peroxides can be evaluated by degree of decreasing the optical absorbance of the condensate of thus formed malondialdehyde with thiobarbituric acid, by adding a test sample of the cyclic amide derivative of the present invention to the homogenate.
That is, the hairs covering in the back of an albino guinea pig (Hartley strain, female) were clipped by using an electric hair clippers under anesthesia. After the enucleation of the hair clipped portion of the skin, the subcutaneous tissue of this skin was removed in cold physiological saline. Distilled water in an amount of 9 times by weight of the skin tissue was added to this skin subcutaneous tissue, then was subjected to homogenation and centrifugation (600 g, for 5 minutes) to obtain the supernatant liquid. 5 Microliters each of test sample solutions of various concentrations was added to 0.5 ml each of the supernatant liquid, then the ultraviolet ray in the intensity of 9.5 mW/cm^2 was irradiated for 60 minutes by using fluorescent lamps (TOSHIBA FL-20SE, manufactured by Toshiba Corporation) as a light source. As to the reference sample solution, the solvent for dissolution of the test compound was used in place of the test sample solution. After ultraviolet radiation, the amount of lipid peroxide being formed in the sample solution (TBA value) was measured by TBA method (cf. Analytical Biochemistry, 1979, Vol. 95, pp. 351-358), and the inhibition rate of lipid peroxide formation shown by the test sample was calculated by the following formula: [formula]

[2] = tested on: skin erythema; assay: Activity for inhibiting skin erythema caused by ultraviolet radiation; format: in vivo, albino guinea pig (Hartley strain, female, 7-8 week age); conditions: for inhibition in vivo at 3 %: Cavia porcellus, UV 1.3-1.5 mW/cm^2 for 30 minutes, measured 24 hours later; for 50% inhibitory concentration (IC50) for inhibiting the skin erythema: three concentrations within 0.1 to 10%
Method: The hairs covering in the back of albino guinea pig (Hartley strain, female, 7-8 week age) were shaved by using an electric hair clippers and a shaver. In the next day, the guinea pig was fixed in Bowlman's cage, then a light shield tape (adhesive plaster for patch test), having 4 round holes of 1.5 cm in diameter was adhered on the hair clipped portion so as to provide 4 sites (round holes) to be exposed to the ultraviolet rays. […] Each one of the test sample solutions was prepared by dissolving each test compounds in three kinds of concentrations within 0.1 to 10%, and applied.

[3] = tested on: lens samples obtained from rat; assay: Activity for preventing the lens opacity (UV-irradiated cultured lens); format: cell-based, rat (Wistar strain, male, 6-10 week age); conditions: 1 h, read-out: Rate of the activity for preventing lens opacity
Method: The lens samples obtained from rat (Wistar strain, male, 6-10 week age) were placed on 24-well plate, and were cultured in DEMEM (Dulbecco's modified Eagle's medium manufactured by Nissui Pharmaceutical Co., Ltd.) at 37° C. overnight, a 5% CO2 environment was used. Under dissecting microscope observation, the lens samples having transparency were only selected to use the test. Thus selected lens samples were transferred to midium (1 ml) in which the test compound was dissolved. (As to the reference test, the medium without containing the test compound was used.) The ultraviolet rays in the intensity of 8.8 mW/cm^2 was irradiated for 60 minutes by using a fluorescent lamp (TOSHIBA FL-20SE) to the lens samples. After the irradiation, the medium was replaced to new medium containing the test compound and further cultured overnight. The medium without the test compound was replaced everyday during 3 days. By using a dissecting microscope, opacity of the lens samples were observed. The degrees of opacity of the lens samples was determined by deviding the field of vision into 8 fields as follows: Score 0: transparent; Score 1: some loss of transparency; and Score 2: completely opaque. Rate of activity for preventing the lens opacity was calculated from the following formula: [formula]

[4] = 3% concentration of test compound, 10 μl topical, read-out: Rate of activity for inhibiting the skin erythema
[5] = test compound 1 x 10^-4 M, UV 8.8 mW/cm^2, 60 minutes

Row | Structure (SMILES) | Inhibition rate of lipid peroxide formation [1] | inhibition in vivo at 3 % [2, 4] | 50% inhibitory concentration (IC50) for inhibiting the skin erythema ([2]; topical) | inhibition at 100 µM [3, 5] | also measured
1 | C=CCc1cc2c(c(CC=C)c1O)CCC(=O)N2C [Example 40] | 84% | 23% | 5.6 concentration in % |  | 
2 | C=CCc1cc2c(c(CC=C)c1O)CCC(=O)N2CC(C)C [Example 41] | 96% | 57% | 2.0 concentration in % | 55% | 
3 | C=CCc1cc2c(c(CC=C)c1O)CCC(=O)N2CC1CCCCC1 [Example 44] | 100% | 63% | 1.6 concentration in % |  | 
4 | C=CCc1cc2c(c(CC=C)c1O)CCC(=O)N2C/C=C(\C)CCC=C(C)C [Example 48] | 95% | 37% |  |  | 
5 | C=CCOc1cccc(CN2C(=O)CCc3c2cc(CC=C)c(O)c3CC=C)c1 [Example 50] | 89% | 36% |  |  | 
6 | C=CCc1cc2c(c(CC=C)c1O)CCC(=O)N2c1ccc(OC)c(OC)c1 [Example 60] | 83% | 27% |  |  | 
7 | C=CCc1c(O)ccc2c1CCC(=O)N2CCCCCCCCCCO [Example 63] | 81% | 35% | 6.5 concentration in % |  | 
8 | C=CCc1cc2c(c(CC=C)c1O)CCC(=O)N2CCCN.Cl [Example 67, 1-(3-aminopropyl)-5,7-diallyl-3,4-dihydro-6-hydroxy-2(1H)-quinolinone hydrochloride] | 75% | 31% |  | 40% | 
9 | C=CCc1cc2c(c(CC=C)c1O)CCC(=O)N2CCCNC(N)=O [Example 68, 5,7-diallyl-3,4-dihydro-6-hydroxy-1-(3-ureidopropyl)-2(1H)-quinolinone] | 68% | 43% |  |  | 
10 | C=CCc1cc2c(c(CC=C)c1O)CCC(=O)N2CC(=O)O [Example 76, 1-(carboxymethyl)-5,7-diallyl-3,4-dihydro-6-hydroxy-2(1H)-quinolinone] | 68% | 50% | 3.1 concentration in % |  | 
11 | C=CCc1cc2c(c(CC=C)c1O)CCC(=O)N2C(C)C [Example 98] |  |  |  | 45% | 
12 | C=CCc1cc2c(c(CC=C)c1O)CCC(=O)N2CCCCCCCC [Example 101] |  | 37% |  | 55% | 
13 | C=CCc1cc2c(c(CC=C)c1O)CCC(=O)N2CCOC(C)=O [Example 103, 1-(2-Acetyloxyethyl)-5,7-diallyl-3,4-dihydro-6-hydroxy-2(1H)-quinolinone] |  |  |  | 57% | 
14 | C=CCc1cc2c(c(CC=C)c1O)CCC(=O)N2CCO [Example 109, 5,7-diallyl-3,4-dihydro-6-hydroxy-1-(2-hydroxyethyl)-2(1H)-quinolinone] |  |  |  | 66% | 
15 | C=CCc1cc2c(c(CC=C)c1O)CCC(=O)N2C(C)C(=O)O (stereo not drawn) [Example 115, Sodium 2-(5,7-Diallyl-6-hydroxy-1,2,3,4-tetrahydro-2-oxoquinolin-1-yl)propionate] |  |  |  |  | inhibition at 100 µM [3]: 63%; inhibition in vivo at 3 % ([2]; topical, 24 h, read-out: Rate of activity for inhibiting the skin erythema, 3% concentration of test compound, 10 μl topical): 33%
16 | O=C1O[C@H]([C@@H](O)CO)C(O)=C1O [Vitamin C, reference compound] |  |  |  | -11% | inhibition at 1000 µM ([3]; test compound 10 x 10^-4 M, UV 8.8 mW/cm^2, 60 minutes): 84%
